The values that follow come from US6841538B1, “Combination therapy using nucleic acids and radio therapy” (priority 1998, dated 2005).

One experiment relates to tumor cells. The note with it: Son and Huang 1994; cited from earlier work.
Experiment [1] concerns MCA 207 tumor. Nature of the experiment: Tumor growth, combination with pINEX-IL-12 in INEX 324. The format is in vivo, C57 BL/6 mice. The note with it: subtherapeutic vincristine (OncoTCS 0.5 mg/kg i.v.) then INEX 324 pINEX-IL-12 100 μg DNA i.v. On the procedure: C57 BL/6 mice are seeded subcutaneously with MCA 207 tumor cells. Tumor seeding is performed by standard techniques. Mice were seeded subcutaneously on the hip flank with 100,000 MCA-207 fibrosarcoma tumor cells by sub-cutaneous injection on day zero.
On days 7-10, when tumors had developed to useable sizes, mice were injected i.v. via tail vein with approximately 0.5 mg/kg of OncoTCS ([…]).
At 8, 16, 24, 30, 36, 42 or […] after OncoTCS treatment, the mice were injected i.v. via tail vein with INEX 324 (100 μg DNA pINEX-IL-12 with about 500 μg lipid all in about 200 μL total volume). Control mice received HBS.

Experiment [2] deals with MCA 207 tumor. Nature of the experiment: Tumor growth, combination with INEX 303 pINEX-TK10 and ganciclovir. Particulars: OncoTCS 0.5 mg/kg i.v. then INEX 303 pINEX-TK10 i.v. and ganciclovir i.p. The format is in vivo, C57 BL/6 mice. On the procedure:
C57 BL/6 mice are seeded subcutaneously with MCA 207 tumor cells. Tumor seeding is performed by standard techniques. Mice are seeded subcutaneously on the hip flank with 100,000 MCA-207 fibrosarcoma tumor cells by […] injection on day zero. The tumor cells are cultivated and prepared according to standard techniques using RPMI media with 10% Fetal Bovine Serum (see, for example, Current Protocols in Molecular Biology, Eds. Ausubel, F. M., et al.)
At 8, 16, 24, 30, 36, 42 or […] after OncoTCS treatment, the mice are injected i.v. via tail vein with INEX 303 containing pINEX-TK10 prepared as described herein (100 μg DNA with about 500 μg lipid all in about 200 μL total volume). Control mice receive HBS.
1 mg ganciclovir, which is in 200 μL PBS (approximately 50 mg/kg; commercially available from Hoffman La Roche) is administered by intraperitoneal injection 12 h and 24 h after SPLP administration.

Experiment [3] deals with SK-OV-3 cells. Put plainly: Cell cycle status by propidium iodide flow cytometry. The class given is cell-based, human. On the procedure: (§1) SK-OV-3 or HeLa-luc cells were seeded at a density of 30,000 cells per well in a 24 well plate in growth media 24 hours prior to treatment with aphidicolin. Aphidicolin (Sigma) was reconstituted in phosphate buffered saline containing 0.5% DMSO. Cells were incubated with aphidicolin at a final concentration of 5 μg/mL in 1 mL of media per well for 16 hours prior to transfection. Transfection was accomplished by the addition of 0.5 μg of formulated DNA to each well.
The cell cycle status of cultures was determined by flow cytometry of permeabilized cells that were stained with propidium iodide. Prior to harvesting, media was aspirated and the cells were washed twice with 2 mL phosphate buffered saline (PBS). After washing, 2-3 drops of pre-warmed trypsin-EDTA (0.25% trypsin, 1 mM EDTA; Gibco BRL) was added to each well and the plate was incubated at 37° C. until the cells had detached from the plate. Trypsin was inactivated by the addition of 1.5 mL of cold media; The samples were transferred to 6 mL polystyrene tubes (Becton-Dickenson, San Jose, Calif., USA) and centrifuged at 2000 rpm for 5 min (Beckman GS-6R, rotor GH3.8). Cells were fixed and permeabilized by incubation for 10 min in 70% methanol (pre-chilled to −70° C.). Samples were then centrifuged at 2000 rpm for 5 min and the cells were incubated in 0.5 mL of 150 μg/mL propidium iodide (Molecular Probes, Eugene, Oreg.) in PBS for 30 minutes on ice in the dark prior to analysis by flow cytometry. 5,000 cells were analyzed in the FL2 channel (λemission=585+/−21 nm) of a FACSort flow cytometer (Becton-Dickinson, San Jose, Calif.) equipped with an Ar- ion laser (λexcitation=488 nm)

In experiment [4] the test system is SK-OV-3 cells. Nature of the experiment: Uptake of YOYO-1 labeled plasmid lipoplexes by flow cytometry. The class given is cell-based, human. The note with it: aphidicolin 5 μg/mL 16 hr; vs control cells. The procedure: as §1
For the plasmid DNA uptake experiments, the method previously described (Zabner, et al., J. Biol. Chem., 270:18997-19007 (1995); Tseng, et al., Biotechnol. Bioeng., 50:548-554 (1996)) using fluorescently labeled DNA and flow cytometry was used with the following modifications. Plasmid DNA was fluorescently labeled by incubation with YOYO-1 iodide (Molecular Probes, Eugene, Oreg.) at a dye:basepair ratio of […] for 10 minutes at 4° C. The sample was then dialyzed twice against autoclaved deionized water.
Lipoplexes were prepared using YOYO-1 labeled DNA and incubated with cells. […] Fluorescence was measured in the FL1 channel (λemission=530+/−15 nm) of a FACSort flow cytometer (Becton-Dickinson, San Jose, Calif.) equipped with an Ar- ion laser (λexcitation=488 nm). Data was collected from 10,000 cells and analyzed for fluorescence using CellQuest software.

In a further experiment the test system is HeLa-luc cells. Nature of the experiment: Luciferase gene expression in stably transfected HeLa-luc cells. The format is cell-based, human. Particulars: HeLa-luc, 0, 6 and 24 hours after arrest vs untreated control cells. On the procedure:
SK-OV-3 cells human ovarian tumor cells, ATCC) were cultured in RPMI 1640 media (StemCell Technologies, Vancouver, B.C.) supplemented with 10% fetal bovine serum (Intergen). HeLa-luc cells were stably transfected with a luciferase reporter plasmid and cultured in Dulbecco's modified Eagle medium (StemCell Technologies, Vancouver, B.C.) supplemented with 10% fetal bovine serum and 400 μg/mL Geneticin (Gibco BRL).
as §1
(§2) Luciferase assays were performed using the Luciferase Assay System kit (Promega, Madison, Wis.) according to the manufacturer's protocol. […] A standard curve was determined by assaying 20 μL of serial dilutions of a 1 mg/mL luciferase standard (Boehringer Mannheim). […] Absorbance was monitored at 570 nm (Dynatech MR5000 plate reader) and protein content calculated using a standard curve of varying concentrations of BSA.

Experiment [5] concerns SK-OV-3 cells. Nature of the experiment: Lipid mediated transfection (lipoplexes or SPLPs), luciferase activity. The format is cell-based, human. The note with it: for increase in luciferase expression, (+/−) vs (−/−) culture: peak; for difference in luciferase activity between (−/−) and (+/+) cultures: 26 hrs. On the procedure:
Lipoplexes were prepared as follows: All reagents were sterile and cooled to 4° C. prior to complex preparation. A solution containing 62 μM dioleoyldimethylammonium chloride: 1,2-sn-dioleoylphosphatidylethanolamine (DODAC:DOPE) large unilamellar vesicles (LUVs) and a solution containing 10 μg/mL plasmid DNA were prepared in distilled water. The DNA was added to an equal volume of lipid dropwise, while vortexing. The solution was incubated on ice for 30 minutes prior to transfection. The resulting lipoplexes contained a final DNA concentration of 0.5 μg/100 μL and the cationic lipid:DNA (+:−) charge ratio was 1:1.
Plasmid containing a therapeutic gene was encapsulated as SPLP using the detergent dialysis method of INEX 351. The SPLP contained 42.5:42.5:15 mol % of DOPE:DODAC:1-O-[2′-(w-methoxypolyethyleneglycol) succinoyl]-2-N-octoylsphingosine, (PEG-CerC8), at a lipid:DNA ratio of 15:1 (w/w). SPLPs were separated from empty liposomes by centrifugation through a discontinuous sucrose gradient.
as §1
Luciferase assays were performed using the Luciferase Assay System kit (Promega, Madison, Wis.) according to the manufacturer's protocol. Cell samples were washed twice with PBS, lysed by incubation with 200 μL of lysis buffer (0.1% triton in 250 mM NaH2PO4, pH 7.4) for 20 min. 20 μL of cell lysate was assayed (in duplicate) using a mL3000 microtiter plate luminometer (Dynex Technologies). A standard curve was determined by assaying 20 μL of serial dilutions of a 1 mg/mL luciferase standard (Boehringer Mannheim). Cell lysate was assayed for protein content using the bicinchoninic acid (BCA) colorimetric method. Briefly, in a 96 well plate, 95 μL of water and 100 μL of the Micro BCA protein assay working reagent (Pierce) were added to 5 μL of cell lysate. The plates were shaken on a rotary platform at 100 rpm for 10 minutes before being incubated at 37° C. for 2 hours. Absorbance was monitored at 570 nm (Dynatech MR5000 plate reader) and protein content calculated using a standard curve of varying concentrations of BSA.

For experiment [6], the system named is SK-OV-3 cells. Put plainly: Semliki Forest Virus (SFV-luc) mediated luciferase gene expression. The class given is cell-based, human. Particulars: SFV-luc m.o.i. 0.5. On the procedure:
as §1
Luciferase cDNA was cloned into the multiple cloning site of pSFV 1-3. Recombinant virus encoding luciferase was prepared according to the protocol described by Liljestrom and Garoff (Maniatis, et al., Molecular Cloning, Cold Spring Harbor, N.Y., 1981, pp. 93-94). Prior to infection of SK-OV-3 cells, virus particles were activated in 0.5 mg/mL chymotrypsin for 30 minutes at room temperature. Chymotrypsin was inactivated by the addition of aprotinin to a final concentration of 0.67 mg/mL. […]
as §2

The mark [7] stands for this setting: (+/−) cultures, 1 hr exposure, either formulation.

As to `N.N.[Cl][Pt][Cl]` [Cisplatin], the “expression of plasmid delivered directly to tumor cells after drug treatment” value in the experiment with tumor cells is recorded as “improved expression”.
On to `CC[C@]1(O)C[C@H]2CN(CCc3c([nH]c4ccccc34)[C@@](C(=O)OC)(c3cc4c(cc3OC)N(C=O)[C@H]3[C@@](O)(C(=O)OC)[C@H](OC(C)=O)[C@]5(CC)C=CCN6CC[C@]43[C@@H]65)C2)C1` [Vincristine], for which the tumor growth entry in the experiment with MCA 207 tumor [1] was “Tumor growth is inhibited and regression in tumor size is visible”. Moreover, the “tumor growth vs HSV-TK/ganciclovir system alone” value with MCA 207 tumor [2] is “inhibits growth of tumors and promotes tumor regression to a significantly greater degree”. In addition, the “expression of plasmid delivered directly to tumor cells after drug treatment” value in the experiment on tumor cells is recorded as “not found to be effective”.
Consider `C[C@@]1(CO)[C@H](O)CC[C@@]2(C)[C@H]1CC[C@H]1C[C@@H]3C[C@@]12CC[C@]3(O)CO` [aphidicolin], for which, in the experiment on SK-OV-3 cells [3] (16 hrs after removal of aphidicolin block), the “cells in the G2/M phase, (+/−) culture” value is “approximately 85%”. Further, the “cells progressed into the G1 phase after mitotic division, (+/−) culture” value in the experiment with SK-OV-3 cells [3] (22 hrs after removal of aphidicolin block) is on record as about 45%. Moreover, the “cells remaining arrested in the G1 phase, (+/+) culture” value with SK-OV-3 cells [3] (end of the 24 incubation with lipoplexes, continued aphidicolin) is recorded as “approximately 95%”. In addition, in the experiment with SK-OV-3 cells [3] (throughout kinetics experiments (to 26 hrs) with lipoplexes or SPLPs), the “cells remaining arrested in the G1 phase, (+/+) cultures” value came out at 95%. Moreover, the “effect of cell cycle arrest on internalization of lipoplexes” value in the experiment with SK-OV-3 cells [4] is “does not affect the internalization of lipoplexes”. Moreover, in the experiment on HeLa-luc cells, the “effect on level of luciferase gene expression” value is on record as “did not significantly affect”. Further, the “time after removal of aphidicolin at which luciferase expression begins to increase” value with SK-OV-3 cells [5] (setting [7]) was “approximately 10 hours”. Further, in the experiment on SK-OV-3 cells [5] (setting [7]), the “time after removal of aphidicolin of maximum luciferase expression” value was 12 h. For the same molecule, the “increase in luciferase expression, (+/−) vs (−/−) culture” value in the experiment on SK-OV-3 cells [5] (SPLPs, 1 hr exposure) turned out to be 8 fold; in the experiment on SK-OV-3 cells [5] (lipoplexes, 1 hr exposure) it was 3 fold. The “difference in luciferase activity between (−/−) and (+/+) cultures” value in the experiment with SK-OV-3 cells [5] (SPLPs) is listed as 20 fold; in the experiment with SK-OV-3 cells [5] (lipoplexes), “approximately 40 fold”. For the same molecule, the “decrease in luciferase gene expression, (+/+) culture” value in the experiment with SK-OV-3 cells [5] (lipoplexes, 24 hrs continuous exposure, continued aphidicolin) came out at 20 fold. Further, the “luciferase expression of (+/−) cultures vs (−/−) control” value with SK-OV-3 cells [5] (lipoplexes, 24 hrs, aphidicolin removed) is reported as “did not differ significantly”. Moreover, the “pattern of SFV-luc gene expression between (−/−), (+/−) and (+/+) cultures” value in the experiment on SK-OV-3 cells [6] is recorded as “no significant difference”.
